The results in this text go back to US20220235065A1 (Epizyme, Inc., priority 2016, published 2022).

In this assay the test system is H3K9me2 in MDA-MB-231 cells. Nature of the assay: MDA-MB-231 H3K9me2 in-cell western assay. In kind it is cell-based. To be noted: Homo sapiens, read-out: EHMT2 ICW (IC50 μM). From the text: MDA-MB-231 cell line was purchased from ATCC (Manassas, Va., USA). RPMI/Glutamax medium, Penicillin-Streptomycin, Heat Inactivated Fetal Bovine Serum, and D-PBS were purchased from Life Technologies (Grand Island, N.Y., USA). Odyssey blocking buffer, 800CW goat anti-mouse IgG (H+L) antibody, and Licor Odyssey Infrared Scanner were purchased from Licor Biosciences, Lincoln, Nebr., USA. H3K9me2 mouse monoclonal antibody (Cat #1220) was purchased from Abcam (Cambridge, Mass., USA). 16% Paraformaldehyde was purchased from Electron Microscopy Sciences, Hatfield, Pa., USA). MDA-MB-231 cells were maintained in complete growth medium (RPMI supplemented with 10% v/v heat inactivated fetal bovine serum) and cultured at 37° C. under 5% CO2. UNC0638 was purchased from Sigma-Aldrich (St. Louis, Mo., USA).
General Procedure for MDA-MB-231 HEK9me2 In-Cell Western Assay.
Compound (100 nL) was added directly to 384-well cell plate. MDA-MB-231 cells (ATCC) were seeded in assay medium (RPMI/Glutamax supplemented with 10% v/v heat inactivated fetal bovine serum and 1% Penicillin/Streptomycin, Life Technologies) at a concentration of 3,000 cells per well to a Poly-D-Lysine coated 384-well cell culture plate with 50 μL per well. Plates were incubated at 37° C., 5% CO2 for 48 hours (BD Biosciences 356697). Plates were incubated at room temperature for 30 minutes and then incubated at 37° C., 5% CO2 for additional 48 hours. After the incubation, 50 μL per well of 8% paraformaldehyde (Electron Microscopy Sciences) in PBS was added to the plates and incubated at room temperature for 20 minutes. Plates were transferred to a Biotek 406 plate washer and washed 2 times with 100 μL per well of wash buffer (1×PBS containing 0.3% Triton X-100 (v/v)). Next, 60 μL per well of Odyssey blocking buffer (Licor Biosciences) was added to each plate and incubated for 1 hour at room temperature. Blocking buffer was removed and 20 μL of monoclonal primary antibody α-H3K9me2 (Abcam) diluted 1:800 in Odyssey buffer with 0.1% Tween 20 (v/v) were added and plates were incubated overnight (16 hours) at 4° C. Plates were washed 5 times with 100 μL per well of wash buffer. Next 20 μL per well of secondary antibody was added (1:500 800CW […] anti-mouse IgG (H+L) antibody (Licor Biosciences), 1:1000 DRAQ5 (Cell Signaling Technology) in Odyssey buffer with 0.1% Tween 20 (v/v)) and incubated for 1 hour at room temperature. The plates were washed 5 times with 100 μL per well wash buffer then 2 times with 100 μL per well of water. Plates were allowed to dry at room temperature then imaged on a Licor Odyssey Infrared Scanner (Licor Biosciences) which measured integrated intensity at 700 nm and 800 nm wavelengths. Both 700 and 800 channels were scanned.
% Inhibition Calculation.
First, the ratio for each well was determined by
Each plate included fourteen control wells of DMSO only treatment (Minimum Inhibition) as well as fourteen control wells (background wells) for maximum inhibition treated with control compound UNC0638 (Background wells).
The average of the ratio values for each well was calculated and used to determine the percent inhibition for each test well in the plate. Control compound was serially diluted three-fold in DMSO for a total of 10 test concentrations beginning at 1 μM. Percent inhibition was calculated as: […]
IC50 curves were generated using triplicate wells per concentration of compound. The IC50 is the concentration of compound at which measured methylation is inhibited by 50% as interpolated from the dose response curves. IC50 values were calculated using a non-linear regression (variable slope-four parameter fit model) with by the following formula
where Top is fixed at 100% and Bottom is fixed to 0%, [I]=concentration of inhibitor, IC50=half maximal inhibitory concentration and n=Hill Slope.

The IC50 is the concentration needed to halve the response being measured. On to `CNc1nc2cc(-c3cc4[nH]ccc4cn3)c(OC)cc2n1C` [Compound 209], for which the IC50 was more than 10 µM.

On to `CNc1cc(C)nc(Nc2ccc(OC)c(-c3cc4[nH]cnc4cn3)c2)n1` [Compound 210], for which the IC50 lay in the range of 1 to 10 µM.

`CNc1cc(C)nc(Nc2ccc(OC)c(-n3cc([C@@H]4CCCN4)nn3)c2)n1` [Compound 212, (S)—N2-(4-methoxy-3-(4-(pyrrolidin-2-yl)-1H-1,2,3-triazol-1-yl)phenyl)-N4,6-dimethylpyrimidine-2,4-diamine]: the IC50 lay in the range of 0.1 to 1 µM.

Regarding `CNc1cc(C)nc(Nc2ccc(OC)c(-n3cc([C@H]4CCCN4)nn3)c2)n1` [Compound 213], the 50% inhibitory concentration (IC50) is 0.1 to 1 µM.

Consider `CNC1=Nc2cc(-c3cc4[nH]ccc4cn3)c(OC)cc2C12CCC2` [Compound 214], for which the concentration for half-maximal inhibition (IC50) fell in the range of 0.1 to 1 µM.

`CNC1=Nc2cc(-c3cc4ccncc4[nH]3)c(OC)cc2C12CCC2` [Compound 215]: the 50% inhibitory concentration (IC50) is 0.1 to 1 µM.

As to `CNC1=Nc2cc(-c3[nH]c4cnccc4c3Cl)c(OC)cc2C12CCC2` [Compound 216], the IC50 lay in the range of 0.1 to 1 µM.

Regarding `CNc1cc(C)nc(Nc2ccc(OC)c(-c3ccc4c(c3)NC(=O)C4)c2)n1` [Compound 218], the IC50 lay in the range of 1 to 10 µM.

For the compound `CNc1cc(C)nc(Nc2ccc(OC)c(-c3cc4c(cn3)CC(=O)N4)c2)n1` [Compound 219], the IC50 is more than 10 µM.

Consider `CNc1cc(C)nc(Nc2ccc(OC)c(-c3cc4[nH]ccc4cn3)c2OC)n1` [Compound 220], for which the IC50 is more than 10 µM.

Turning to `CNc1cc(C)nc(Nc2ccc(OC)c(-c3cc4[nH]ccc4cn3)c2F)n1` [Compound 221], the IC50 lay in the range of 0.1 to 1 µM.

On to `CNCc1cnn(-c2c(OC)ccc(Nc3nc(C)cc(NC)n3)c2OC)c1` [Compound 222], for which the IC50 was in the range of 0.1 to 1 µM.

Consider `CNc1cc(C)nc(Nc2ccc(OC)c(-c3cnc4cc[nH]c4c3)c2)n1` [Compound 223], for which the IC50 was in the range of 0.1 to 1 µM.

`CNc1cc(-c2cc(Nc3nc(C)cc(NC)n3)ccc2OC)ncn1` [Compound 225]: the IC50 lay in the range of 1 to 10 µM.

As to `CNc1cc(C)nc(Nc2ccc(OC)c(-c3cc4[nH]ccc4nc3C)c2)n1` [Compound 228], the IC50 was 0.1 to 1 µM.

Turning to `CNc1cc(C)nc(Nc2ccc(OC)c(-c3cc4[nH]cc(F)c4cn3)c2)n1` [Compound 229], the IC50 lay in the range of 0.1 to 1 µM.

Consider `CNc1cc(-c2cc(Nc3nc(C)cc(NC)n3)ccc2OC)nc(C)n1` [Compound 230], for which the IC50 lay in the range of 1 to 10 µM.

In the case of `COc1cc(NC2CCNCC2)ccc1-c1cc2[nH]ccc2cn1` [Compound 231], the IC50 was more than 10 µM.

As to `CNc1cc(C)nc(Nc2ccc(OC)c(-c3cc(C4CC4)ncn3)c2)n1` [Compound 232], the IC50 lay within 1 to 10 µM.

In the case of `CNc1cc(C)nc(Nc2ccc(OC)c(-c3cc(C4CC4)cnn3)c2)n1` [Compound 233], the IC50 lay within 1 to 10 µM.

On to `CNc1cc(C)nc(Nc2ccc(OC)c(-c3cn4ccnc4cn3)c2)n1` [Compound 234], for which the IC50 was in the range of 1 to 10 µM.

Turning to `CNc1cc(C)nc(Nc2ccc(OC)c(-c3cc4cnoc4cn3)c2)n1` [Compound 235], the IC50 is more than 10 µM.

Take `COc1cc(NC2CCNCC2)ccc1-c1cc(C2CC2)cnn1` [Compound 236]: the IC50 was more than 10 µM.

As for `CNc1cc(C)nc(Nc2ccc(OC)c(-c3cc4[nH]ccc4c(C)n3)c2)n1` [Compound 237], the concentration for half-maximal inhibition (IC50) was in the range of 0.1 to 1 µM.

As for `CNC1=Nc2cc(-c3[nH]c4cnccc4c3C)c(OC)cc2C12CCC2` [Compound 238, 5′-methoxy-N-methyl-6′-(3-methyl-1H-pyrrolo[2,3-c]pyridin-2-yl)spiro[cyclobutane-1,3′-indol]-2′-amine], the IC50 is less than 0.1 µM.

`CNc1cc(C)nc(Nc2ccc(C)c(C(=O)Nc3cccnc3)c2)n1` [Compound 239]: the IC50 is more than 10 µM.

For `CNc1cc(C)nc(Nc2ccc(Cl)c(C(=O)Nc3cccnc3)c2)n1` [Compound 240], the IC50 was more than 10 µM.

With `CNc1cc(C)nc(Nc2ccc(C)c(-c3cc4ccncc4[nH]3)c2)n1` [Compound 241], the IC50 lay within 0.1 to 1 µM.

`CNc1cc(C)nc(Nc2cccc(C(=O)Nc3cccnc3)c2)n1` [Compound 242]: the IC50 was more than 10 µM.
